Earlier results in PMC9516332 (Frontiers in Oncology, 2022).
Like-named read-outs stand apart in the source and are kept apart here.

Legend:
[1] = molecular target: panel of 255 wild-type kinases (Homo sapiens, UniProt P07948); conditions: kinase LYNa, 1 µmol/L single concentration, cited from earlier work
[2] = molecular target: panel of 255 wild-type kinases (Homo sapiens, UniProt Q9Y6M4); conditions: kinase CK1γ3, 1 µmol/L single concentration, cited from earlier work
[3] = molecular target: panel of 255 wild-type kinases (Homo sapiens, UniProt Q00526); conditions: CDK3/CycE1 kinase assay, 1 µmol/L single concentration, cited from earlier work
[4] = molecular target: panel of 255 wild-type kinases (Homo sapiens, UniProt P41240); conditions: kinase CSK, 1 µmol/L single concentration, cited from earlier work
[5] = molecular target: panel of 255 wild-type kinases (Homo sapiens, UniProt O94804); conditions: kinase LOK, 1 µmol/L single concentration, cited from earlier work
[6] = molecular target: T1, panel of 255 wild-type kinases (Homo sapiens, UniProt O15111); conditions: kinase IKKα, 1 µmol/L single concentration, cited from earlier work
T1 sequence (O15111 1-745): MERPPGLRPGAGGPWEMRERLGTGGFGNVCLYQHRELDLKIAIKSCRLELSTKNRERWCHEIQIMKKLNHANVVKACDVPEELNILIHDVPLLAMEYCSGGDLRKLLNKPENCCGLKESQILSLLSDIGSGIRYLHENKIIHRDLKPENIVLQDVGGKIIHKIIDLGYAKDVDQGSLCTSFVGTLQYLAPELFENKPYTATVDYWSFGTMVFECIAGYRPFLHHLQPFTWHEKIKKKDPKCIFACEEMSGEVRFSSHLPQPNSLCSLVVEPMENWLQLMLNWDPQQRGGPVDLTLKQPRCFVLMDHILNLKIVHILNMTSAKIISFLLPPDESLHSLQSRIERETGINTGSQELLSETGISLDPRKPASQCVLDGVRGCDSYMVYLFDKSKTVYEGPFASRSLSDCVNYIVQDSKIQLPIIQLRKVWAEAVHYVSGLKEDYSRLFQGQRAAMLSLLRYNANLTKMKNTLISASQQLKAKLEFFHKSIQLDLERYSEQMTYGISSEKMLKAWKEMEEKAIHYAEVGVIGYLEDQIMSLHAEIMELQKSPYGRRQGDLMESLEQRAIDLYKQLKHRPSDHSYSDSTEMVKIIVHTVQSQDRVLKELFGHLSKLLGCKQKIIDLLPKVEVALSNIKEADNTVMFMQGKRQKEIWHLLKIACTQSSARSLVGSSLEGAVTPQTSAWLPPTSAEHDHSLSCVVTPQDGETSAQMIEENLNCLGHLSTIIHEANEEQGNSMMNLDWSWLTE

[7] = molecular target: panel of 255 wild-type kinases (Homo sapiens, UniProt Q06187); conditions: BTK kinase assay, 1 µmol/L single concentration, cited from earlier work
[8] = molecular target: panel of 255 wild-type kinases (Homo sapiens, UniProt Q9UK32); conditions: kinase RSK4, 1 µmol/L single concentration, cited from earlier work
[9] = molecular target: panel of 255 wild-type kinases (Homo sapiens, UniProt P19784); conditions: kinase CK2α2/β, 1 µmol/L single concentration, cited from earlier work
[10] = molecular target: T2, panel of 255 wild-type kinases (Homo sapiens, UniProt Q15139); conditions: kinase PKD1, 1 µmol/L single concentration, cited from earlier work
T2 sequence (Q15139 1-912): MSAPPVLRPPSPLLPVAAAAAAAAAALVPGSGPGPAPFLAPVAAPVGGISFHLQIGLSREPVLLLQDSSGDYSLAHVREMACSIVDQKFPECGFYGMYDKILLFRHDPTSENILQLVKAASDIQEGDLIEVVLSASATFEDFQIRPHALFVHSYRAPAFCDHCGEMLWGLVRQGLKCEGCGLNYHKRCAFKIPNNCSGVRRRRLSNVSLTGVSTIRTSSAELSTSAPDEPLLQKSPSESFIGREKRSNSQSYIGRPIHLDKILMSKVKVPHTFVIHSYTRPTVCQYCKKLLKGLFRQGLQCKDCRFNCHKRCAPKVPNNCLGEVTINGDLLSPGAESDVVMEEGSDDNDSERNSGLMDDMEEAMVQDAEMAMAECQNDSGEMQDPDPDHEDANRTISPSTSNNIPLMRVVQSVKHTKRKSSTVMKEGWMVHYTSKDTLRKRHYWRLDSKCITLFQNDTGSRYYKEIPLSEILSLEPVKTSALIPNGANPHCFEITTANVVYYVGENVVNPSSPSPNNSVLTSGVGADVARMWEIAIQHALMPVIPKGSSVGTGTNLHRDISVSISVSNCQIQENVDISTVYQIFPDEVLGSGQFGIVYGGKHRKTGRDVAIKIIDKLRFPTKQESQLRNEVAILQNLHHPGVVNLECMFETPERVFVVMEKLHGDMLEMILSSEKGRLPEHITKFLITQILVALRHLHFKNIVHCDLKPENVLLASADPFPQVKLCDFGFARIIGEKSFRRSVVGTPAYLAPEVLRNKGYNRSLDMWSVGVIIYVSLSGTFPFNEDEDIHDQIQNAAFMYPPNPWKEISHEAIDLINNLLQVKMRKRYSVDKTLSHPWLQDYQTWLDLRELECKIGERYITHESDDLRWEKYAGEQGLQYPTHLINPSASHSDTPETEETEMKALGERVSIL

[11] = molecular target: panel of 255 wild-type kinases (Homo sapiens, UniProt Q13627); conditions: kinase DYRK1A, 1 µmol/L single concentration, cited from earlier work
[12] = ref DOI: 10.1158/1535-7163.MCT-18-0877
[13] = ref DOI: 10.1371/journal.pone.0092146

Row | Structure (SMILES) | %-inhibition at 1 µmol/L, LYNa [1, 12] | %-inhibition at 1 µmol/L, CK1γ3 [2, 12] | %-inhibition CDK3/CycE1 [3, 12] | %-inhibition at 1 µmol/L, CSK [4, 12] | %-inhibition at 1 µmol/L, LOK [5, 12] | %-inhibition at 1 µmol/L, IKKα [6, 12] | %-inhibition BTK [7, 12] | %-inhibition at 1 µmol/L, RSK4 [8, 12] | %-inhibition at 1 µmol/L, CK2α2/β [9, 12] | %-inhibition at 1 µmol/L, PKD1 [10, 12] | %-inhibition at 1 µmol/L, DYRK1A [11, 12] | further results
1 | Cc1cc(Nc2ncc(Cl)c(Nc3ccccc3S(=O)(=O)C(C)C)n2)c(OC(C)C)cc1C1CCNCC1 [ceritinib] | 16% | 11% | -3.17% | 3% | 75% | -0.91% | -1.88% | 83% | -6% | 27% | 1.13% | –
2 | O=C(c1ccc(F)c(F)c1Nc1ccc(I)cc1F)N1CC(O)([C@@H]2CCCCN2)C1 [cobimetinib] | -1.81% | 6% | 2.16% | 5.62% | 10% | 1.07% | 4% | 5.52% | -6% | -5% | -5% | –
3 | C=CC(=O)Nc1cc(Nc2nccc(-c3cn(C)c4ccccc34)n2)c(OC)cc1N(C)CCN(C)C [osimertinib] | 0.63% | 13% | 22% | 9% | 42% | 5% | 84% | 38% | 16% | 22% | 0.712% | –
4 | CCCS(=O)(=O)Nc1ccc(F)c(C(=O)c2c[nH]c3ncc(-c4ccc(Cl)cc4)cc23)c1F [vemurafenib] | – | – | – | – | – | – | – | – | – | – | – | %-inhibition at 1 µmol/L, LYNa [1, 13]: 73%; %-inhibition at 1 µmol/L, CK1γ3 [2, 13]: 2.14%; %-inhibition CDK3/CycE1 [3, 13]: -4.34%; %-inhibition at 1 µmol/L, CSK [4, 13]: 76%; %-inhibition at 1 µmol/L, LOK [5, 13]: -1%; %-inhibition at 1 µmol/L, IKKα [6, 13]: -1.89%; %-inhibition BTK [7, 13]: 2%; %-inhibition at 1 µmol/L, RSK4 [8, 13]: -3%; %-inhibition at 1 µmol/L, CK2α2/β [9, 13]: -6.56%; %-inhibition at 1 µmol/L, PKD1 [10, 13]: 43%; %-inhibition at 1 µmol/L, DYRK1A [11, 13]: -18%
